Assay results: BindingDB's records for doi:10.1021/acsmedchemlett.0c00405 (University of Oxford, 2020)

experiment: Modulation of human utrophinA expressed in mouse H2K-mdx utrnA-luc cells assessed as upregulation of utrophin production after 24 hrs by luciferase reporter gene assay

Compound	EC50 [nM]
CCP(=O)(OC)c1ccc2oc(-c3cncc(C(F)(F)F)c3)nc2c1 (stereo not given)	4170
CCP(=O)(OC)c1ccc2oc(-c3ccc(OC)cc3)nc2c1 (stereo not given)	510
CCP(=O)(OC)c1ccc2nc(-c3cccc(OC(F)F)c3)oc2c1 (stereo not given)	> 50000
CCP(=O)(OC)c1ccc2oc(-c3ccccc3C(F)F)nc2c1 (stereo not given)	1260
CCP(=O)(OC)c1ccc2oc(-c3cccc(OC)c3)nc2c1 (stereo not given)	157
CCP(=O)(OC)c1ccc2nc(-c3ccccc3C(F)F)oc2c1 (stereo not given)	500
CCP(=O)(OC)c1ccc2nc(-c3cncc(C(F)(F)F)c3)oc2c1 (stereo not given)	> 50000
CCP(=O)(OC)c1ccc2oc(-c3cccc(OC(F)F)c3)nc2c1 (stereo not given)	677
CCP(=O)(OC)c1ccc2nc(-c3ccc(C(F)F)cc3)oc2c1 (stereo not given)	1900
CCP(=O)(OC)c1ccc2oc(-c3ccnc(OC(F)F)c3)nc2c1 (stereo not given)	309
CCP(=O)(OC)c1ccc2oc(-c3ccc(C(F)F)cc3)nc2c1 (stereo not given)	750
CCP(=O)(OC)c1ccc2oc(-c3ccc4c(c3)OC(F)(F)O4)nc2c1 (stereo not given)	530
CCP(=O)(OC)c1ccc2oc(-c3cncc(C(F)F)c3)nc2c1 (stereo not given)	5900
CCP(=O)(OC)c1ccc2oc(-c3cccc(C(F)F)c3)nc2c1 (stereo not given)	890
CCP(=O)(OC)c1ccc2oc(-c3ccc(F)cc3C(F)F)nc2c1 (stereo not given)	580
